# From patent US8940730B2, “Methods and compositions of treating a Flaviviridae family viral infection” (The Board of Trustees of the Leland Stanford Junior …, priority 2007, dated 2015)
# Legend:
# HCV RNA replication = assay: Luciferase assay of HCV RNA replication (Table 3); settings: Hepatitis C virus, read-out: Residual Luciferase activity
# [1] = system: HCV genotype 2a infectious clone; assay: HCV genotype 2a infectious clone assay (Renilla luciferase); format: cell-based; settings: Hepatitis C virus, read-out: 2a (% activity @ 5 μM), 5 μM; % replication activity of control with no test compound
# Procedure: The assays in parts A and B were used to generate the genotype 1b inhibitory activity and related cell toxicity (viability) data supported herein. This assay has been used to generate the genotype 2a inhibitory activity data supported herein.
# (§1) 1) Wash cells once with PBS, trypsinize. […] Mix twice by pipeting. […] Make a common stock from all tubes. […] 15) Incubate for 24 hr before treatment.
# (§2) 3) Repeat daily for 2 more days.
# Huh7.5 cells = settings: human, 3 days
# Procedure: as §1, §2
# 1) Alamar blue assay—a) Include medium for background subtraction (and also for seeing change in color easily). b) Aspirate medium. c) Make a stock of medium plus 10% Alamar blue. Total volume per well is 100 μl. d) Incubate for 2-2.5 hrs at 37° C. (or until there is a color change). c) Read plates at flex station.
compound,measurement,setting,value
CN(C)CCCOc1nn(Cc2ccccc2)c2ccccc12 [Compound 184],activity at 5 µM,HCV RNA replication,> 80%
same,activity at 10 µM,HCV RNA replication,20 to 54%
c1ccc(Cn2ncc3ccccc32)cc1 [Compound 185],activity at 5 µM,HCV RNA replication,> 80%
same,activity at 10 µM,HCV RNA replication,> 80%
Brc1ccc(Cn2ncc3ccccc32)cc1 [Compound 186],activity at 5 µM,HCV RNA replication,> 80%
same,activity at 10 µM,HCV RNA replication,> 80%
Cc1ccc2c(c1)c(OCCCN(C)C)nn2Cc1ccccc1 [Compound 187],activity at 5 µM,HCV RNA replication,55 to 80%
same,activity at 10 µM,HCV RNA replication,20 to 54%
Cc1ccc2c(c1)c(O)nn2Cc1ccccc1 [Compound 188],activity at 5 µM,HCV RNA replication,> 80%
same,activity at 10 µM,HCV RNA replication,20 to 54%
Oc1nn(Cc2ccccc2)c2ccccc12 [Compound 189],activity at 5 µM,HCV RNA replication,> 80%
same,activity at 10 µM,HCV RNA replication,> 80%
Cl.c1ccc(Cn2nc(OCCN3CCCCC3)c3ccccc32)cc1 [Compound 190],activity at 5 µM,HCV RNA replication,> 80%
same,activity at 10 µM,HCV RNA replication,55 to 80%
Cc1ccc2c(c1)c(OCCN1CCCCC1)nn2Cc1ccccc1.Cl [Compound 191],activity at 5 µM,HCV RNA replication,55 to 80%
same,activity at 10 µM,HCV RNA replication,< 20%
Cl.c1ccc(Cn2nc(OCCCN3CCCC3)c3ccccc32)cc1 [Compound 192],activity at 5 µM,HCV RNA replication,55 to 80%
same,activity at 10 µM,HCV RNA replication,20 to 54%
Cc1ccc2c(c1)c(OCCCN1CCCC1)nn2Cc1ccccc1 [Compound 193],activity at 5 µM,HCV RNA replication,20 to 54%
same,activity at 10 µM,HCV RNA replication,< 20%
Cl.c1ccc(Cn2nc(OCCN3CCCC3)c3ccccc32)cc1 [Compound 194],activity at 5 µM,HCV RNA replication,> 80%
same,activity at 10 µM,HCV RNA replication,55 to 80%
CN(C)CCOc1nn(Cc2ccccc2)c2ccccc12 [Compound 195],activity at 5 µM,HCV RNA replication,> 80%
same,activity at 10 µM,HCV RNA replication,> 80%
Cc1ccc2c(c1)c(OCCN1CCCC1)nn2Cc1ccccc1 [Compound 196],activity at 5 µM,HCV RNA replication,55 to 80%
same,activity at 10 µM,HCV RNA replication,20 to 54%
Cc1ccc2c(c1)c(OCCN(C)C)nn2Cc1ccccc1 [Compound 197],activity at 5 µM,HCV RNA replication,> 80%
same,activity at 10 µM,HCV RNA replication,20 to 54%
c1ccc(Cn2nc(OCCCN3CCCCC3)c3ccccc32)cc1 [Compound 198],activity at 5 µM,HCV RNA replication,20 to 54%
same,activity at 10 µM,HCV RNA replication,< 20%
Cc1ccc2c(c1)c(OCCCN1CCCCC1)nn2Cc1ccccc1 [Compound 199],activity at 5 µM,HCV RNA replication,20 to 54%
same,activity at 10 µM,HCV RNA replication,< 20%
Cc1cc2c(cnn2Cc2ccc(Cl)cc2)cc1Cl [Compound 200],activity at 5 µM,HCV RNA replication,> 80%
same,activity at 10 µM,HCV RNA replication,55 to 80%
Cc1cc2cnn(Cc3ccc(Cl)cc3)c2cc1Br [Compound 201],activity at 5 µM,HCV RNA replication,> 80%
same,activity at 10 µM,HCV RNA replication,55 to 80%
Cc1cc2c(cnn2Cc2ccc(Cl)cc2)cc1Br [Compound 202],activity at 5 µM,HCV RNA replication,> 80%
same,activity at 10 µM,HCV RNA replication,> 80%
O=[N+]([O-])c1cc2cnn(Cc3ccc(Cl)cc3)c2cc1Cl [Compound 203],activity at 5 µM,HCV RNA replication,> 80%
same,activity at 10 µM,HCV RNA replication,20 to 54%
Cc1cc2c(cnn2Cc2ccc(Cl)cc2)cc1[N+](=O)[O-] [Compound 204],activity at 5 µM,HCV RNA replication,55 to 80%
same,activity at 10 µM,HCV RNA replication,20 to 54%
Clc1ccc(Cn2ncc3cc(Br)ccc32)cc1 [Compound 205],activity at 5 µM,HCV RNA replication,> 80%
same,activity at 10 µM,HCV RNA replication,55 to 80%
Cc1cc2nn(Cc3ccc(Cl)cc3)cc2cc1Cl [Compound 206],activity at 5 µM,HCV RNA replication,> 80%
same,activity at 10 µM,HCV RNA replication,55 to 80%
Cc1cc2cn(Cc3ccc(Cl)cc3)nc2cc1Br [Compound 207],activity at 5 µM,HCV RNA replication,> 80%
same,activity at 10 µM,HCV RNA replication,55 to 80%
Cc1cc2nn(Cc3ccc(Cl)cc3)cc2cc1Br [Compound 208],activity at 5 µM,HCV RNA replication,55 to 80%
same,activity at 10 µM,HCV RNA replication,20 to 54%
O=[N+]([O-])c1cc2cn(Cc3ccc(Cl)cc3)nc2cc1Cl [Compound 209],activity at 5 µM,HCV RNA replication,> 80%
same,activity at 10 µM,HCV RNA replication,> 80%
Cc1cc2nn(Cc3ccc(Cl)cc3)cc2cc1[N+](=O)[O-] [Compound 210],activity at 5 µM,HCV RNA replication,20 to 54%
same,activity at 10 µM,HCV RNA replication,20 to 54%
Clc1ccc(Cn2cc3cc(Br)ccc3n2)cc1 [Compound 211],activity at 5 µM,HCV RNA replication,> 80%
same,activity at 10 µM,HCV RNA replication,55 to 80%
FC(F)(F)c1ccc2cn(Cc3ccc(Cl)cc3)nc2c1 [Compound 212],activity at 5 µM,HCV RNA replication,55 to 80%
same,activity at 10 µM,HCV RNA replication,20 to 54%
Cc1ccc2c(c1)c(OCCCN(C)C)nn2Cc1ccccc1 [EBP151],activity at 5 µM,[1],62%
same,2a cell viability (@ 5 μM),Huh7.5 cells,92%
c1ccc(Cn2nc(OCCN3CCCCC3)c3ccccc32)cc1 [EBP175],activity at 5 µM,[1],89%
same,2a cell viability (@ 5 μM),Huh7.5 cells,98%
Cc1ccc2c(c1)c(OCCN1CCCCC1)nn2Cc1ccccc1 [EBP176],activity at 5 µM,[1],58%
same,2a cell viability (@ 5 μM),Huh7.5 cells,98%
c1ccc(Cn2nc(OCCCN3CCCC3)c3ccccc32)cc1 [EBP177],activity at 5 µM,[1],53%
same,2a cell viability (@ 5 μM),Huh7.5 cells,100%
